In assay [1] the target is T1, Recombinant Human CHO Stromelysin (MMP-3) (Homo sapiens, UniProt P08254).
T1 construct: made in house; host or cells: CHO (Chinese hamster ovary) cells
Put plainly: P218 quenched fluorescence assay (Microfluorometric Profiling Assay), MMP-3. The format is biochemical. The settings on record: for IC50: 6 μM P218, pH 6.5, 25 min at 37° C., read-out: MMP-3 Fluorogenic IC50; for inhibition at 5 µM: read-out: MMP-3 Fluorogenic, I = % inhibition. An excerpt: (§1) P218 Quenched Fluorescence Assay for MMP Inhibition:
(§2) The P218 quenched fluorescence assay (Microfluorometric Profiling Assay) is a modification of that originally described by Knight, et al., FEBS Lett. 296 263, 1992 for a related substance and a variety of matrix metalloproteinases (MMPs) in cuvettes. The assay was run with each invention compound and the three MMPs, MMP-3, MMP-9 and MMP-2, analyzed in parallel, adapted as follows for a 96-well microtiter plate and a Hamilton AT® workstation.
(§3) P218 Fluorogenic Substrate:
(§4) P218 is a synthetic substrate containing a 4-acetyl-7-methoxycoumarin (MCA) group in the N-terminal position and a 3-[2,4-dinitrophenyl]-L-2,3-diaminopropionyl (DPA) group internally. This is a modification of a peptide reported by Knight (1992) that was used as a substrate for matrix metalloproteinases. Once the P218 peptide is cleaved (putative clip site at the Ala-Leu bond), the fluorescence of the MCA group can be detected on a fluorometer with excitation at 328 nm and emission at 393 nm. P218 is currently being produced BACHEM exclusively for Bayer. P218 has the structure:
(§5) H-MCA-Pro-Lys-Pro-Leu-Ala-Leu-DPA-Ala-Arg-NH2 (MW 1332.2)
Recombinant Human CHO Stromelysin (MMP-3)
Recombinant Human CHO Pro-MMP-3: Human CHO pro-stromelysin-257 (pro-MMP-3) was expressed and purified as described by Housley, et al., J. Biol. Chem. 268, 4481 (1993).
Activation of Pro-MMP-3: Pro-MMP-3 at 1.72 μM (100 μg/mL) in 5 mM Tris at pH 7.5, 5 mM CaCl2, 25 mM NaCl, and 0.005% Brij-35 MMP-3) activation buffer) was activated by incubation with TPCK (N-tosyl-(L)-phenylalanine chloromethyl ketone) trypsin (1: 100 w/w to pro-MMP-3) at 25° C. for 30 min. The reaction was stopped by addition of soybean trypsin inhibitor (SBTI; 5:1 w/w to trypsin concentration). This activation protocol results in the formation of 45 kDa active MMP-3, which still contains the C-terminal portion of the enzyme.
(§6) Hamiltion Microlab AT Plus: The MMP-Profiling Assay is performed robotically on a Hamilton MicroLab AT Plus®. The Hamilton is programmed to: (1) serially dilute up to 11 potential inhibitors automatically from a 2.5 mM stock in 100% DMSO; (2) distribute substrate followed by inhibitor into a 96 well Cytofluor plate; and (3) add a single enzyme to the plate with mixing to start the reaction. Subsequent plates for each additional enzyme are prepared automatically by beginning the program at the substrate addition point, remixing the diluted inhibitors and beginning the reaction by addition of enzyme. In this way, all MMP assays were done using the same inhibitor dilutions.
(§7) Millipore Cytofluor II. Following incubation, the plate was read on a Cytofluor II fluorometric plate reader with excitation at 340 nm and emission at 395 nm with the gain set at 80.
(§8) Microfluorometric Reaction Buffer (MRB): Dilution of test compounds, enzymes, and P218 substrate for the microfluorometric assay were made in microfluorometric reaction buffer consisting of 50 mM 2-(N-morpholino)ethanesulfonic acid (MES) at pH 6.5 with 10 mM CaCl2, 150 mM NaCl, 0.005% Brij-35 and 1% DMSO.
(§9) MMP Microfluorometric Profiling Assay. The assay is done with a final substrate concentration of 6 μM P218 and approximately 0.5 to 0.8 nM MMP with variable drug concentrations. The Hamilton is programmed to serially dilute up to 11 compounds from a 2.5 mM stock (100% DMSO) to 10× the final compounds concentrations in the assay. Initially, the instrument delivers various amounts of microfluoromentric reaction buffer (MRB) to a 96 tube rack of 1 ml Marsh dilution tubes. The instrument then picks up 20 μl of inhibitor (2.5 mM) from the sample rack and mixes it with a buffer in row A of the Marsh rack, resulting in a 50 μM drug concentration. The inhibitors are then serially diluted to 10, 5, 1, 0.2, 0.05 and 0.01 μM. […]

For assay [2], the target named is T2, Human Recombinant Gelatinase B (MMP-9) (Homo sapiens, UniProt P14780).
T2 construct: made in house
T2 sequence (P14780 107-707 limits assumed): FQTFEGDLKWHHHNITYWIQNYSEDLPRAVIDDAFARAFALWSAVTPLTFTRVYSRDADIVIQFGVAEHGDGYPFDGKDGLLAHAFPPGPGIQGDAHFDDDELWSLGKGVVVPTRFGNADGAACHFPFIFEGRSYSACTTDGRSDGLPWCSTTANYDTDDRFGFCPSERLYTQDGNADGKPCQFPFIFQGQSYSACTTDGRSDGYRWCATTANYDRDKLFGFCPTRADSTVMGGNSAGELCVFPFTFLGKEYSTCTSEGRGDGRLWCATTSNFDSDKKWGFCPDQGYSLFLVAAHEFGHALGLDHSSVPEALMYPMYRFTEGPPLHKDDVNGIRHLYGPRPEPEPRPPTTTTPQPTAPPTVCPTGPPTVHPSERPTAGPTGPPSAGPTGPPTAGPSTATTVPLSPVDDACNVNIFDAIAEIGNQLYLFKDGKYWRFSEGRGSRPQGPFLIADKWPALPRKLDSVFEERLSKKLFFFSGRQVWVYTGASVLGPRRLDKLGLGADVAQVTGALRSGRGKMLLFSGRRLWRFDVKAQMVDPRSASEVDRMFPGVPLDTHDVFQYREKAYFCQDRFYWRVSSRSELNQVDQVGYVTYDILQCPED
Put plainly: P218 quenched fluorescence assay (Microfluorometric Profiling Assay), MMP-9. The format is biochemical. The settings on record: 6 μM P218, pH 6.5, 25 min at 37° C.; read-out: MMP-9 Fluorogenic IC50.
Source text: as §1, §2, §3, §4, §5
Preparation of Human Recombinant Pro-Gelatinase B (MMP-9):
Recombinant Human Pro-MMP-9: Human pro-gelatinase B (pro-MMP-9) derived from U937 cDNA as described by Wilhelm, et al. J. Biol. Chem. 264, 17213 (1989) was expressed as the full-length form using a baculovirus protein expression system. The pro-enzyme was purified using methods previously described by Hibbs, et al. J. Biol. Chem. 260, 2493 (1984).
Activation of Pro-MMP-9: […] 20 μg/mL in 50 mM Tris at pH 7.4, 10 mM CaCl2, 150 mM NaCl, and 0.005% Brij-35 (MMP-9 activation buffer) was activated by incubation with 0.5 mM p-aminophenylmercuric acetate (APMA) for 3.5 h at 37° C. The enzyme was dialyzed against the same buffer to revmove the APMA.
as §6, §7, §8, §9

The target in assay [3] is T3, Human Recombinant Gelatinase A (MMP-2) (Homo sapiens, UniProt P08253).
T3 sequence (P08253 110-660): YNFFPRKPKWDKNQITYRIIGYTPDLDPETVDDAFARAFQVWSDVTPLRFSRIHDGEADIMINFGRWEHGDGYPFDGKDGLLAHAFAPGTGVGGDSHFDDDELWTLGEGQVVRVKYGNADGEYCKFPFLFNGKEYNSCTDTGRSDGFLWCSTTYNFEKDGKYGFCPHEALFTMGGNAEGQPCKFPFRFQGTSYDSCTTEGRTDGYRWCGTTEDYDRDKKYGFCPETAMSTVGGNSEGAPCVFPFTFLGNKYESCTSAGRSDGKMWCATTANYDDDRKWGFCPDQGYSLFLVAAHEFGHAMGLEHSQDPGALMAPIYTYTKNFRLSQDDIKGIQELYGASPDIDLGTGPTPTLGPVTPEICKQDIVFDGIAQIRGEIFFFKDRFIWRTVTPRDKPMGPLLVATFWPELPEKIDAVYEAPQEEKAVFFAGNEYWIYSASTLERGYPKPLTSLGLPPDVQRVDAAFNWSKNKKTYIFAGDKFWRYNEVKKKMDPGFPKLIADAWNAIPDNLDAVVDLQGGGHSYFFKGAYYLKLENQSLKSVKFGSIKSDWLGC
Put plainly: P218 quenched fluorescence assay (Microfluorometric Profiling Assay), MMP-2. The following applies: for IC50: 6 μM P218, pH 6.5, 25 min at 37° C., read-out: MMP-2 Fluorogenic IC50; for inhibition at 5 µM: read-out: MMP-2 Fluorogenic, I = % inhibition. Type of assay: biochemical.

The test system of assay [4] is human colon tumor. The settings on record: given intraperitoneally, orthotopic model, nude mice; cited from earlier work.
Assay [5] deals with human ovarian carcinoma xenografts. The settings on record: cited from earlier work.

T1 sequence (P08254 100-477): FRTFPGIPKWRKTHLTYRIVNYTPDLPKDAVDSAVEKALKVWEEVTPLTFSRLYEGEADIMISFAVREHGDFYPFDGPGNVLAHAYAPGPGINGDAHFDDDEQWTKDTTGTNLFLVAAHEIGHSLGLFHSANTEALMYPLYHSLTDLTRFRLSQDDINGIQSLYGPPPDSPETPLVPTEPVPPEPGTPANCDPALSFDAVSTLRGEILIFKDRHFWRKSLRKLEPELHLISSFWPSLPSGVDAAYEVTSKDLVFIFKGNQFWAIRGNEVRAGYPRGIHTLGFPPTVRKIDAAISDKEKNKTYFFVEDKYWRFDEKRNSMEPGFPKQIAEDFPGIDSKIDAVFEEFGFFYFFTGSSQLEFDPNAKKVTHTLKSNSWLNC

With `CCCCCCCCCCCCCC(=O)CC(CCN1C(=O)c2ccccc2C1=O)C(=O)O` (stereo not drawn) [V, 1,3-dihydro-1,3-dioxo-α-(2-oxopentadecyl)-2H-isoindole-2-butanoic acid], the IC50 in assay [1] was 3380 nM; in assay [2], 150 nM; in assay [3] it was 1100 nM.
Regarding `CNC(=O)[C@H](Cc1ccccc1)NC(=O)[C@H](CC(C)C)[C@H](CSc1cccs1)C(=O)NO` [batimastat], the “inhibition of human colon tumor growth and spread” value in assay [4] was “inhibits human colon tumor growth and spread”. Further, in assay [5], the “survival of mice bearing human ovarian carcinoma xenografts” value is given as “prolongs the survival”.
`CCCCCCCCCCCCCCC(=O)CC(CCN1C(=O)c2ccccc2C1=O)C(=O)O` (stereo not drawn) [VI, 1,3-dihydro-1,3-dioxo-α-(2-oxohexadecyl)-2H-isoindole-2-butanoic acid]: in assay [1], the inhibition at 5 µM stood at 45%. Besides, the figures for the IC50 in assay [2] and in assay [3] were 235 nM and 1020 nM, respectively.
As to `COc1ccc(CCCC(=O)CC(CCc2ccccc2)C(=O)O)cc1` (stereo not drawn) [VII], the inhibition at 5 µM in assay [1] was 3%; in assay [3] it was 18%.
Consider `CCCCCCCCCCCC(=O)CC(CCN1C(=O)c2ccccc2C1=O)C(=O)O` (stereo not drawn) [III, 1,3-dihydro-1,3-dioxo-α-(2-oxotidecyl)-2H-isoindole-2-butanoic acid], for which the figures for the IC50 in assay [1], in assay [2] and in assay [3] were 2950 nM, 91 nM and 750 nM, respectively.
With `COc1ccc(CC(=O)CC(CCc2ccccc2)C(=O)O)cc1` (stereo not drawn) [IX], the values for the inhibition at 5 µM in assay [1] and in assay [3] were 9% and 18%, respectively.
For the compound `CCCCCCCCCC(=O)CC(CCN1C(=O)c2ccccc2C1=O)C(=O)O` (stereo not drawn) [II, 1,3-dihydro-1,3-dioxo-α-(2-oxoundecyl)-2H-isoindole-2-butanoic acid], the IC50 in assay [1] turned out to be 5000 nM; in assay [2], 240 nM; in assay [3], 1850 nM.
Consider `CCCCCCCCCCCCC(=O)CC(CCN1C(=O)c2ccccc2C1=O)C(=O)O` (stereo not drawn) [IV, 1,3-dihydro-1,3-dioxo-α-(2-oxotetradecyl)-2H-isoindole-2-butanoicacid], for which the half-inhibitory concentration (IC50) in assay [1] came to 2380 nM; in assay [2], 155 nM; in assay [3], 515 nM.
With `CCCCCCCCCCC(=O)CC(CCN1C(=O)c2ccccc2C1=O)C(=O)O` (stereo not drawn) [I, 1,3-dihydro-1,3-dioxo-α-(2-oxododecyl)-2H-isoindole-2-butanoic acid], the concentration for half-maximal inhibition (IC50) amounted to 4800 nM in assay [1], 120 nM in assay [2] and 1300 nM in assay [3].
